The text below walks through data of PMC12002330 (Proceedings of the National Academy of Sciences of the …, 2025).

Read-outs that look alike come from different tables or passages of the source.

The test system of one experiment is DENV-2 NGC-Nluc. Kind of experiment: Antiviral assay using NGC-Nluc in Huh7 cells. Format: cell-based.
The target of experiment [1] is recombinant DENV-2 NS4B (mature, full-length) with an N-terminal hexahistidine tag (DENV-2) (UniProt P14340). Kind of experiment: BLI.
Experiment [2] shares this target. As to the kind of experiment: ITC. Background: ITC needs no label: the signal is the heat of the interaction.
A further experiment concerns the target WT DENV-2 NS4B (Dengue virus type 2, UniProt P29990). As to the kind of experiment: ITC binding of inhibitor to NS4B.
Experiment [3] addresses NS4B peptide 121-171 (cytosolic loop) (Dengue virus type 2, UniProt P29990). Format: binding. The note with it: aa 121 to 171.
Experiment [4] deals with DENV-2 NS4B/NS3 interaction (Dengue virus type 2, UniProt P29990). Type of experiment: binding.
For a further experiment, the system named is DENV-2 NGC strain (WT). As to the kind of experiment: microbe, parasite or virus in culture. Type of experiment: cell-based.
In experiment [5] the target is NS4B/NS3 interaction (WT NS4B) (Dengue virus type 2, UniProt P14340). Type of experiment: cell-based.
For another experiment, the system named is four serotypes of DENV. The note with it: cited from earlier work.
Experiment [6] deals with recombinant WT ZIKV NS4B (ZIKV) (UniProt Q32ZE1). As to the kind of experiment: ITC.

Chain of recombinant DENV-2 NS4B (mature, full-length) with an N-terminal hexahistidine tag (DENV-2) (P14340 2244-2491 limits assumed): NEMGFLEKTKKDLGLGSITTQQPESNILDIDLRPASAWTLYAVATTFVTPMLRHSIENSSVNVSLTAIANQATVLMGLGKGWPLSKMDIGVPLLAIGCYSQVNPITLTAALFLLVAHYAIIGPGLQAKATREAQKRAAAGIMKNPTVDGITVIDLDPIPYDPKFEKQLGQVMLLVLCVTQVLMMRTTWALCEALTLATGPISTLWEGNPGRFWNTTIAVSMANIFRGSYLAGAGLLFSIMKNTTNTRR
Chain of recombinant DENV-2 full-length NS3 (P14340 1476-2093 limits assumed): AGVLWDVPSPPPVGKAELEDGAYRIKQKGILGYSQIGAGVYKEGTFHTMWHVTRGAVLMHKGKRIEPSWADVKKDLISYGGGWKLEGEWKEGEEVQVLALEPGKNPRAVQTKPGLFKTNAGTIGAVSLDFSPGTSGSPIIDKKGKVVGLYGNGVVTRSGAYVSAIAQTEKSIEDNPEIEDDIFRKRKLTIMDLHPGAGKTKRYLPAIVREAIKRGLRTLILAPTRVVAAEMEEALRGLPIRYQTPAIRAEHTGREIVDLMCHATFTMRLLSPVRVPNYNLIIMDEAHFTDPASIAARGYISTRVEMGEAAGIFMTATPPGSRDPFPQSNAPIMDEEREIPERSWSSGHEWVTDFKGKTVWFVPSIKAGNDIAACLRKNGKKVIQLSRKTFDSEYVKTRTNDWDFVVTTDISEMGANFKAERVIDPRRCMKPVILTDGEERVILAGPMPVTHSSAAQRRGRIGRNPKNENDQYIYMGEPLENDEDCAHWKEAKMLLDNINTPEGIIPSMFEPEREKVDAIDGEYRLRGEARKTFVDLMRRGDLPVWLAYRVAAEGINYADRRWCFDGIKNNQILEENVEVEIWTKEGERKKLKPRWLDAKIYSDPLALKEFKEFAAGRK
Chain of NS4B/NS3 interaction (WT NS4B) (P14340 2244-2491): as the sequence (P14340 2244-2491 limits assumed) above
Chain of DENV-2 NS4B/NS3 interaction (P29990 2244-2491): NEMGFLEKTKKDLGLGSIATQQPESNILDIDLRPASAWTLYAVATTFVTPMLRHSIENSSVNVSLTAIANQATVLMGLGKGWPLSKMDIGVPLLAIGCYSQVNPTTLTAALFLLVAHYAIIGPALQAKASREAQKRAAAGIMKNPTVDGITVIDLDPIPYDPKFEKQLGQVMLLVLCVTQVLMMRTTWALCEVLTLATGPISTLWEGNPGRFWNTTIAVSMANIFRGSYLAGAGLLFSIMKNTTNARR
Chain of WT DENV-2 NS4B (P29990 2244-2491): as above
Chain of NS4B peptide 121-171 (cytosolic loop) (P29990 2364-2414): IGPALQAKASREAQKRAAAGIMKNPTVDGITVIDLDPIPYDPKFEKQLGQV

For orientation: EC50 means the concentration that produces a half-maximal response. For the compound `C#C[C@@]1(O)[C@H](O)[C@@H](CO)O[C@H]1n1ccc2c(N)ncnc21` [NITD-008], a half-maximal effect in the experiment on DENV-2 NGC-Nluc (Huh7 cells) (EC50) was put at 380 nM.

What is called Kd is the constant that tells how readily two partners part at equilibrium. Consider “recombinant DENV-2 full-length NS3 (from UniProt P14340 1476-2093) (enzyme)”, for which, in experiment [1], the Kd was determined as 13 µM and the fold increase of koff, 200 nM against 3.1 nM NITD-688 was found to be 2.6 fold. In experiment [2], the KD with NITD-688 (molar ratio to NS4B 1:2) was found to be 26.2 µM, the KD with NITD-688 (molar ratio to NS4B 4:1) was found to be 594 µM and the dissociation constant (Kd) is 12.3 µM.

For `COc1cc(N[C@H](C(=O)c2c[nH]c3ccc(OC(F)(F)F)cc23)c2ccc(Cl)cc2OC)cc(S(C)(=O)=O)c1` [JNJ-1802], the “higher binding affinity to NS4B compared to NITD-688” value at WT DENV-2 NS4B is 4.2 fold. Besides, the 50% effective concentration (EC50) was found to be 0.031 nM in the experiment with DENV-2 NGC-Nluc (Dengue virus, DENV2, Huh-7, 48 h) and 0.019 nM in the experiment with DENV-2 NGC strain (WT) (Dengue virus, DENV2, A549, 48 h, read-out: EC50 (averaged)). In addition, the “binding to cytosolic loop of NS4B by ITC” value in experiment [3] is “not the cytosolic loop”. In [4] (ITC assay), the “more inhibition of NS4B/NS3 interactions than NITD-688” value was “approximately 4 fold”. In addition, in experiment [4] (ITC, JNJ-1802 preincubated with NS4B), the “inhibition of NS4B/NS3 binding” value was “effectively inhibited”. In addition, the “higher potency in cellular assays than NITD-688” value in the experiment with DENV-2 NGC strain (WT) is recorded as ~ 100 fold. Moreover, the “decrease of NS3 co-IPed with NS4B” value in experiment [5] (10 nM JNJ-1802 added at 4 h posttransfection) turned out to be 80%; in [5] (10 nM JNJ-1802 added at 24 h posttransfection) it was 8%. In addition, the “efficacy against four serotypes of DENV” value in the experiment on four serotypes of DENV is recorded as “picomolar to low nanomolar efficacy”.

“NS3 used in the ITC of ZIKV NS4B/NS3 interactions (enzyme)”: in [6], the Kd amounted to 3.4 µM.
